Some test systems named below: SK-OV-3; SR; CCRF-CEM; RPMI-8226; ACHN; LOX IMVI; SK-MEL-5; MDA-N; EKVX; M14; 786-0; NCI-H522; SK-MEL-2; SF-295; SF-268; K562; Hs-578T; MDA-MB-231; SW-620.
Holding throughout (assay): NCI anticancer screen, dose series, 48 h

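Grown in 96-well plates, cells were treated for 48 hours with each compound at five concentrations. Insufficient inhibition: endpoint recorded as highest concentration tested. GI50: concentration for 50% inhibition of growth.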 Calls of active or inactive are those of the source. Cut-off read from the data, not from the text of the source: active = GI50 up to about 1.1 µM and inactive = higher.

Consider `CCCCCCCCCCCCCCCCOC[C@@H](COC(c1ccccc1)(c1ccccc1)c1ccccc1)O[PH](=S)OC` (stereo not given in full), for which the GI50 was 5.68 µM (inactive) with SK-OV-3; 2.33 µM (inactive) in the assay on SR; 11.7 µM (inactive) with CCRF-CEM; 3.4 µM (inactive) in the assay with RPMI-8226; 15.7 µM (inactive) in the assay on ACHN; 2.98 µM (inactive) with LOX IMVI. Further, the GI50 is 4.81 µM (inactive) in the assay with SK-MEL-5; 2.24 µM (inactive) in the assay with MDA-N; 13.6 µM (inactive) in the assay on EKVX; 3.3 µM (inactive) in the assay with M14; 6.49 µM (inactive) in the assay on 786-0; 10.2 µM (inactive) with NCI-H522. The GI50 in the assay on SK-MEL-2 was 11.1 µM (inactive); in the assay with SF-295, 1.41 µM (inactive); with SF-268, 9.25 µM (inactive); in the assay with K562, 16.4 µM (inactive); in the assay on Hs-578T it was 15.5 µM (inactive); with MDA-MB-231, 2.28 µM (inactive). The GI50 with SW-620 is 16.1 µM (inactive).

For the compound `COc1ccc2c(c1)CCc1cc(C(N)=O)c3nnnn3c1-2`, the GI50 in the assay on SK-OV-3 is 54.3 µM (inactive); with SR, > 100 µM (inactive); in the assay on CCRF-CEM it was > 50.1 µM (inactive); in the assay on RPMI-8226, > 100 µM (inactive); in the assay with ACHN, 30.5 µM (inactive); with LOX IMVI it was > 58.1 µM (inactive). The GI50 in the assay with SK-MEL-5 is > 100 µM (inactive); in the assay on MDA-N, > 100 µM (inactive); in the assay on EKVX, < 0.0224 µM (active); in the assay on M14 it was > 100 µM (inactive); in the assay on 786-0, 33.6 µM (inactive); with NCI-H522, 27.9 µM (inactive). Further, the GI50 is > 42.1 µM (inactive) in the assay with SK-MEL-2; 44.1 µM (inactive) in the assay on SF-295; 2.98 µM (inactive) in the assay on SF-268; > 96.6 µM (inactive) with K562; 0.408 µM (active) in the assay with Hs-578T; > 49.2 µM (inactive) with MDA-MB-231. The GI50 with SW-620 was > 100 µM (inactive).

For `NC(CSS(=O)(=O)c1ccccc1)C(=O)O` (stereo not given), the GI50 in the assay on SK-OV-3, in the assay on SR, in the assay on CCRF-CEM, in the assay with RPMI-8226, in the assay on ACHN and in the assay with LOX IMVI was > 10 µM (inactive) in each case. In addition, the GI50 in the assay with SK-MEL-5, with MDA-N, with EKVX, in the assay with M14, with 786-0 and in the assay with NCI-H522 was > 10 µM (inactive) in each case. For the same compound, the GI50 in the assay with SK-MEL-2, in the assay with SF-295, in the assay on SF-268, with K562, in the assay on Hs-578T and in the assay with MDA-MB-231 was > 10 µM (inactive) throughout. Moreover, the GI50 in the assay on SW-620 was > 10 µM (inactive).

Turning to `N#CC12CC3=C(N=C1NC1=C(CCc4ccccc41)C2)c1ccccc1CC3` (stereo not given), the GI50 in the assay with SK-OV-3 is 2.67 µM (inactive); in the assay with SR, 0.255 µM (active); in the assay on CCRF-CEM, 0.745 µM (active); in the assay with RPMI-8226, 0.993 µM (active); with ACHN, 6.59 µM (inactive); with LOX IMVI it was 1.42 µM (inactive). For the same compound, the GI50 with SK-MEL-5 is 3.74 µM (inactive); in the assay with MDA-N, 0.258 µM (active); in the assay on EKVX, 4.67 µM (inactive); in the assay on M14, 2.76 µM (inactive); in the assay with 786-0, 3.42 µM (inactive); in the assay with NCI-H522, 1.23 µM (inactive). Further, the GI50 in the assay on SK-MEL-2 was 4.39 µM (inactive); in the assay with SF-295, 0.984 µM (active); in the assay on SF-268 it was 3.3 µM (inactive); with K562 it was 0.317 µM (active); in the assay with Hs-578T, 4.83 µM (inactive); in the assay with MDA-MB-231, 4.16 µM (inactive). For the same compound, the GI50 in the assay on SW-620 is 0.871 µM (active).

As to `CC(=O)NN(c1ccccc1)C1CCN(c2ccccc2)N1C(C)=O` (stereo not given), the GI50 in the assay with SK-OV-3 is > 10 µM (inactive); in the assay with SR, 6.25 µM (inactive); with CCRF-CEM it was > 10 µM (inactive); with RPMI-8226 it was 8.71 µM (inactive); in the assay on ACHN, 2.82 µM (inactive); in the assay with LOX IMVI it was 4.58 µM (inactive). Further, the GI50 in the assay with SK-MEL-5 was > 10 µM (inactive); in the assay with MDA-N it was 9.16 µM (inactive); in the assay with EKVX, > 10 µM (inactive); in the assay on M14 it was > 10 µM (inactive); in the assay on 786-0, > 10 µM (inactive); in the assay on NCI-H522, 7.53 µM (inactive). Further, the GI50 is > 10 µM (inactive) in the assay with SK-MEL-2; 3.5 µM (inactive) in the assay with SF-295; 5.07 µM (inactive) with SF-268; 2.32 µM (inactive) with K562; > 10 µM (inactive) in the assay on Hs-578T; > 10 µM (inactive) in the assay with MDA-MB-231. In addition, the GI50 in the assay on SW-620 is 0.889 µM (active).

As to `COC[C@@H](/N=C/C(C)(C)C)C(C)C`, the GI50 in the assay on SK-OV-3, in the assay with SR, in the assay on CCRF-CEM, in the assay with RPMI-8226, in the assay on ACHN and in the assay on LOX IMVI was > 100 µM (inactive) each time. Further, the GI50 in the assay on SK-MEL-5, in the assay with MDA-N, with EKVX, with M14, in the assay with 786-0 and with NCI-H522 was > 100 µM (inactive) in each case. In addition, the GI50 in the assay on SK-MEL-2, in the assay with SF-295, in the assay with SF-268, in the assay with K562, in the assay with Hs-578T and in the assay with MDA-MB-231 was > 100 µM (inactive) throughout. For the same compound, the GI50 in the assay with SW-620 was > 100 µM (inactive).

On to `C(/C=N/N=C1NCCN1)=N\N=C1NCCN1`, for which the GI50 in the assay with SK-OV-3, with SR, with CCRF-CEM, with RPMI-8226, in the assay on ACHN and with LOX IMVI was > 100 µM (inactive) in each case. Besides, the GI50 with SK-MEL-5 was > 100 µM (inactive); in the assay with MDA-N, > 100 µM (inactive); with EKVX, > 100 µM (inactive); in the assay with M14, > 100 µM (inactive); with 786-0 it was > 100 µM (inactive); in the assay with NCI-H522 it was 72.3 µM (inactive). Moreover, the GI50 with SK-MEL-2 was > 100 µM (inactive); in the assay on SF-295 it was > 100 µM (inactive); in the assay with SF-268, > 100 µM (inactive); with K562, 17.8 µM (inactive); in the assay on Hs-578T it was > 100 µM (inactive); in the assay on MDA-MB-231 it was > 100 µM (inactive). Moreover, the GI50 with SW-620 was > 100 µM (inactive).

For the compound `COc1cc2c(cc1OC)C(=O)N(c1ccc(O)cc1)C2`, the GI50 in the assay with SK-OV-3, in the assay with SR, with CCRF-CEM, with RPMI-8226, in the assay with ACHN and in the assay on LOX IMVI was > 100 µM (inactive) in each case. For the same compound, the GI50 with SK-MEL-5, in the assay with MDA-N, in the assay with EKVX, in the assay on M14, in the assay on 786-0 and with NCI-H522 was > 100 µM (inactive) throughout. Moreover, the GI50 in the assay on SK-MEL-2, in the assay with SF-295, with SF-268, in the assay with K562, in the assay with Hs-578T and in the assay with MDA-MB-231 was > 100 µM (inactive) each time. In addition, in the assay with SW-620, the GI50 was > 100 µM (inactive).

With `CCC(C)C(Nc1c2ccccc2nc2c(C(=O)NCCN(C)C)cccc12)C(=O)O` (stereo not given), the GI50 with SK-OV-3 is 22 µM (inactive); in the assay on SR, 46.6 µM (inactive); in the assay with CCRF-CEM, 24.3 µM (inactive); in the assay on RPMI-8226, 28.8 µM (inactive); in the assay on ACHN, 7.94 µM (inactive); in the assay on LOX IMVI it was 4.8 µM (inactive). Moreover, the GI50 was 15.7 µM (inactive) in the assay with SK-MEL-5; 17.2 µM (inactive) in the assay on MDA-N; 16.2 µM (inactive) with EKVX; 16.2 µM (inactive) in the assay with M14; 9.89 µM (inactive) in the assay with 786-0; 12.7 µM (inactive) in the assay with NCI-H522. The GI50 was 19.4 µM (inactive) in the assay with SK-MEL-2; 12.3 µM (inactive) in the assay with SF-295; 13.6 µM (inactive) with SF-268; 21.6 µM (inactive) in the assay with K562; 18.4 µM (inactive) in the assay with Hs-578T; 17.6 µM (inactive) in the assay with MDA-MB-231. In the assay on SW-620, the GI50 is 9.16 µM (inactive).

Consider `CCCCCC(/C=C/C1CCC(=O)C1CC#C[Si](C)(C)C)OCc1ccccc1` (stereo not given), for which the GI50 in the assay on SK-OV-3 is 41.2 µM (inactive); with SR, > 35 µM (inactive); in the assay with CCRF-CEM, 10.5 µM (inactive); in the assay with RPMI-8226 it was 14.7 µM (inactive); in the assay with ACHN it was 17.5 µM (inactive); with LOX IMVI it was 15.7 µM (inactive). For the same compound, the GI50 in the assay with SK-MEL-5 is 13.2 µM (inactive); in the assay on MDA-N it was 21.1 µM (inactive); with EKVX, 16.9 µM (inactive); in the assay with M14 it was 25 µM (inactive); in the assay with 786-0, 14.6 µM (inactive); in the assay on NCI-H522, 14 µM (inactive). Besides, the GI50 is 15.5 µM (inactive) in the assay on SK-MEL-2; 17.1 µM (inactive) in the assay on SF-295; 14.3 µM (inactive) with SF-268; 19.1 µM (inactive) with K562; 17.9 µM (inactive) with Hs-578T; 23.1 µM (inactive) with MDA-MB-231. Also, in the assay with SW-620, the GI50 was 24 µM (inactive).

The values above are taken from ChEMBL document CHEMBL1201862, “PubChem BioAssay data set” (2004).
